Test results: patent US9346815B2, “5-chloro-2-difluoromethoxyphenyl pyrazolopyrimidine compounds, compositions and methods of use thereof” (Genentech, Inc., priority 2014, dated 2016)
pEC50, pKi: −log10 of the molar value. Where a name gives a salt, the structure may show the parent alone. Read-outs that look alike come from different tables or passages of the source. Each block holds one compound with its values, some of them ahead of it.

Experiments:
[1] = biological target: isolated recombinant JAK1 kinase domain (Homo sapiens (Human), UniProt P23458); assay: JAK1 enzyme assay (Caliper LabChip, peptide phosphorylation); assay type: biochemical; settings: isolated recombinant JAK1 kinase domain, 25 μM ATP
isolated recombinant JAK1 kinase domain, sequence (P23458 875-1153): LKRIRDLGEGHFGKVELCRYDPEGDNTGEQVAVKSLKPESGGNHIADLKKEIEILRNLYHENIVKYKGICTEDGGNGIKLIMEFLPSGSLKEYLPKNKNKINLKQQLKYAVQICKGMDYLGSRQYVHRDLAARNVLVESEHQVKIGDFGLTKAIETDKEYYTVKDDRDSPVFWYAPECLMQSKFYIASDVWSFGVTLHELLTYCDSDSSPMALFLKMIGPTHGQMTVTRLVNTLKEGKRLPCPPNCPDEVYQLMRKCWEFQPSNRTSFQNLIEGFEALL

[2] = biological target: isolated recombinant JAK2 kinase domain (Homo sapiens (Human), UniProt O60674); assay: JAK2 enzyme assay (Caliper LabChip, peptide phosphorylation); assay type: biochemical; settings: 25 μM ATP
isolated recombinant JAK2 kinase domain, sequence (O60674 849-1124): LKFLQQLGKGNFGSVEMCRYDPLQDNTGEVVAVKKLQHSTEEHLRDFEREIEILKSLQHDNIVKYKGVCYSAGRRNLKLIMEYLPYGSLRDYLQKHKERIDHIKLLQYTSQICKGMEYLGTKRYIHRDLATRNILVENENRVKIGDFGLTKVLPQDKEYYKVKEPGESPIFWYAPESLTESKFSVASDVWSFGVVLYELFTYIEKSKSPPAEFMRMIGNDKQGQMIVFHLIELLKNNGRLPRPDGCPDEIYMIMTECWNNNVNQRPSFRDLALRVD

[3] = system: JAK1-dependent STAT6 phosphorylation downstream of IL-13 stimulation in TF-1 human erythroleukemia cells; assay: JAK1 pathway assay in TF-1 cells (IL-13-pSTAT6, MSD); assay type: cell-based; settings: read-out: IL13-pSTAT6 EC50_TF-1
Summary of the method: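 Cells were preincubated with compounds (0.2% DMSO) for 30 min (TF-1, GM-CSF-starved overnight, serum-free OptiMEM, 300,000 cells/well) or 1 h (BEAS-2B, complete medium, 100,000 cells/well) at 37 °C.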

Structure (SMILES): CC1(CN2C[C@@H]3CN(C(=O)Cn4cc(NC(=O)c5cnn6cccnc56)c(-c5cc(Cl)ccc5OC(F)F)n4)C[C@@H]3C2)COC1 [Example 39, N-[1-[2-[(3aR,6aS)-2-[(3-methyloxetan-3-yl)methyl]-1,3,3a,4,6,6a-hexahydropyrrolo[3,4-c]pyrrol-5-yl]-2-oxo-ethyl]-3-[5-chloro-2-(difluoromethoxy)phenyl]pyrazol-4-yl]pyrazolo[1,5-a]pyrimidine-3-carboxamide]
pKi [1]: 9.26 | pKi [2]: 9.06 | pEC50 ([3]; Homo sapiens, TF-1, TF-1 cells): 8.18

Structure (SMILES): O=C(Nc1sc(N2CCC(N3CC(F)C3)CC2)nc1-c1cc(Cl)ccc1OC(F)F)c1cnn2cccnc12 [Example 194, N-[4-[5-chloro-2-(difluoromethoxy)phenyl]-2-[4-(3-fluoroazetidin-1-yl)-1-piperidyl]thiazol-5-yl]pyrazolo[1,5-a]pyrimidine-3-carboxamide]
pKi [1]: 8.64 | pKi [2]: 8.84 | pEC50 ([3]; Homo sapiens, TF-1, TF-1 cells): 7.76

Structure (SMILES): C=CCN(CCOc1ccc(C)cc1)C1CCN(C(=O)Cn2cc(NC(=O)c3cnn4cccnc34)c(-c3cc(Cl)ccc3OC(F)F)n2)CC1 [Example 109, N-[1-[2-[4-[allyl-[2-(4-methylphenoxy)ethyl]amino]-1-piperidyl]-2-oxo-ethyl]-3-[5-chloro-2-(difluoromethoxy)phenyl]pyrazol-4-yl]pyrazolo[1,5-a]pyrimidine-3-carboxamide]
pKi [1]: 8.49 | pKi [2]: 8.14 | pEC50 ([3]; Homo sapiens, TF-1, TF-1 cells): 7.37

Structure (SMILES): O=C(Nc1cn(CC(=O)N2C[C@H]3CN(CC4CC4)C[C@H]3C2)nc1-c1cc(Cl)ccc1OC(F)F)c1cnn2cccnc12 [Example 6, Cis-pyrazolo[1,5-a]pyrimidine-3-carboxylic acid {3-(5-chloro-2-difluoromethoxyphenyl)-1-[2-(5-cyclopropylmethylhexahydropyrrolo[3,4-c]pyrrol-2-yl)-2-oxoethyl]-1H-pyrazol-4-yl}amide]
pKi [1]: 9.15 | pKi [2]: 9.12 | pEC50 ([3]; Homo sapiens, TF-1, TF-1 cells): 8.23

Structure (SMILES): CN1CCC2(CCN(C(=O)Cn3cc(NC(=O)c4cnn5cccnc45)c(-c4cc(Cl)ccc4OC(F)F)n3)C2)C1 (stereo not drawn) [Example 212, N-[3-[5-chloro-2-(difluoromethoxy)phenyl]-1-[2-(7-methyl-2,7-diazaspiro[4.4]nonan-2-yl)-2-oxo-ethyl]pyrazol-4-yl]pyrazolo[1,5-a]pyrimidine-3-carboxamide]
pKi [1]: 9.04 | pKi [2]: 8.71 | pEC50 ([3]; Homo sapiens, TF-1, TF-1 cells): 7.51

Structure (SMILES): CN1CCC2(CCN(C(=O)Cn3cc(NC(=O)c4cnn5cccnc45)c(-c4cc(Cl)ccc4OC(F)F)n3)CC2)C1 [Example 224, N-[3-[5-chloro-2-(difluoromethoxy)phenyl]-1-[2-(2-methyl-2,8-diazaspiro[4.5]decan-8-yl)-2-oxo-ethyl]pyrazol-4-yl]pyrazolo[1,5-a]pyrimidine-3-carboxamide]
pKi [1]: 9.25 | pKi [2]: 8.83 | pEC50 ([3]; Homo sapiens, TF-1, TF-1 cells): 7.71

Structure (SMILES): COc1ccc(CCN(C)C2CCN(C(=O)Cn3cc(NC(=O)c4cnn5cccnc45)c(-c4cc(Cl)ccc4OC(F)F)n3)CC2)cc1 [Example 95, N-[3-[5-chloro-2-(difluoromethoxy)phenyl]-1-[2-[4-[2-(4-methoxyphenyl)ethyl-methyl-amino]-1-piperidyl]-2-oxo-ethyl]pyrazol-4-yl]pyrazolo[1,5-a]pyrimidine-3-carboxamide]
pKi [1]: 9.10 | pKi [2]: 8.59 | pEC50 ([3]; Homo sapiens, TF-1, TF-1 cells): 7.76

Structure (SMILES): O=C(Nc1cn(CC(=O)N2C[C@H]3CN(CCOCc4ccc(Cl)cc4)C[C@H]3C2)nc1-c1cc(Cl)ccc1OC(F)F)c1cnn2cccnc12 [Example 60, N-[1-[2-[(3aR,6aS)-2-[2-[(4-chlorophenyl)methoxy]ethyl]-1,3,3a,4,6,6a-hexahydropyrrolo[3,4-c]pyrrol-5-yl]-2-oxo-ethyl]-3-[5-chloro-2-(difluoromethoxy)phenyl]pyrazol-4-yl]pyrazolo[1,5-a]pyrimidine-3-carboxamide]
pKi [1]: 8.96 | pKi [2]: 9.15 | pEC50 ([3]; Homo sapiens, TF-1, TF-1 cells): 7.34

Structure (SMILES): CN(Cc1ccccc1)C1CCN(c2nc(-c3cc(Cl)ccc3OC(F)F)c(NC(=O)c3cnn4cccnc34)s2)CC1 [Example 201, N-[2-[4-[benzyl(methyl)amino]-1-piperidyl]-4-[5-chloro-2-(difluoromethoxy)phenyl]thiazol-5-yl]pyrazolo[1,5-a]pyrimidine-3-carboxamide]
pKi [1]: 8.30 | pKi [2]: 8.42 | pEC50 ([3]; Homo sapiens, TF-1, TF-1 cells): 6.74

Structure (SMILES): O=C(Nc1cn(C2CCN(CCCN3CCOCC3)CC2)nc1-c1cc(Cl)ccc1OC(F)F)c1cnn2cccnc12 [Example 158, N-[3-[5-chloro-2-(difluoromethoxy)phenyl]-1-[1-(3-morpholinopropyl)-4-piperidyl]pyrazol-4-yl]pyrazolo[1,5-a]pyrimidine-3-carboxamide]
pKi [1]: 8.67 | pKi [2]: 9.59 | pEC50 ([3]; Homo sapiens, TF-1, TF-1 cells): 7.41

Structure (SMILES): CN(C)Cc1ccc(-c2nc(-c3cc(Cl)ccc3OC(F)F)c(NC(=O)c3cnn4cccnc34)s2)cc1 [Example 255, N-[4-[5-chloro-2-(difluoromethoxy)phenyl]-2-[4-[(dimethylamino)methyl]phenyl]thiazol-5-yl]pyrazolo[1,5-a]pyrimidine-3-carboxamide]
pKi [1]: 9.25 | pKi [2]: 9.40 | pEC50 ([3]; Homo sapiens, TF-1, TF-1 cells): 7.06

Structure (SMILES): CN1C[C@@H]2CN(C(=O)Cn3cc(NC(=O)c4cnn5ccc(N)nc45)c(-c4cc(Cl)ccc4OC(F)F)n3)C[C@@H]2C1 [Example 7, 5-Amino-pyrazolo[1,5-a]pyrimidine-3-carboxylic acid {3-(5-chloro-2-difluoromethoxy-phenyl)-1-[2-((3aR,6aS)-5-methyl-hexahydro-pyrrolo[3,4-c]pyrrol-2-yl)-2-oxo-ethyl]-1H-pyrazol-4-yl}-amide hydrochloride]
pKi [1]: 8.96 | pKi [2]: 9.02 | pEC50 ([3]; Homo sapiens, TF-1, TF-1 cells): 5.98

Structure (SMILES): Cc1cnc2c(C(=O)Nc3cn(CC(=O)N4C[C@H]5CN(C)C[C@H]5C4)nc3-c3cc(Cl)ccc3OC(F)F)cnn2c1 [Example 8, 6-Methyl-pyrazolo[1,5-a]pyrimidine-3-carboxylic acid {3-(5-chloro-2-difluoromethoxy-phenyl)-1-[2-((3aR,6aS)-5-methyl-hexahydro-pyrrolo[3,4-c]pyrrol-2-yl)-2-oxo-ethyl]-1H-pyrazol-4-yl}-amide hydrochloride]
pKi [1]: 7.02 | pKi [2]: 6.92 | pEC50 ([3]; Homo sapiens, TF-1, TF-1 cells): 6.13

Structure (SMILES): COCCN(C)C1CCN(C(=O)Cn2cc(NC(=O)c3cnn4cccnc34)c(-c3cc(Cl)ccc3OC(F)F)n2)CC1 [Example 68, N-[3-[5-chloro-2-(difluoromethoxy)phenyl]-1-[2-[4-[2-methoxyethyl(methyl)amino]-1-piperidyl]-2-oxo-ethyl]pyrazol-4-yl]pyrazolo[1,5-a]pyrimidine-3-carboxamide]
pKi [1]: 9.13 | pKi [2]: 8.77 | pEC50 ([3]; Homo sapiens, TF-1, TF-1 cells): 7.87

Continued, values first:

pKi [1]: 9.27 | pKi [2]: 9.66 | pEC50 ([3]; TF-1 cells): 8.17
Structure (SMILES): CN1C[C@@H]2CN(C(=O)Cn3cc(NC(=O)c4cnn5cccnc45)c(-c4cc(Cl)ccc4OC(F)F)n3)C[C@]2(c2ccccc2)C1 [Example 44, N-[1-[2-[(3aR,6aR)-2-methyl-3a-phenyl-3,4,6,6a-tetrahydro-1H-pyrrolo[3,4-c]pyrrol-5-yl]-2-oxo-ethyl]-3-[5-chloro-2-(difluoromethoxy)phenyl]pyrazol-4-yl]pyrazolo[1,5-a]pyrimidine-3-carboxamide]

pKi [1]: 9.33 | pKi [2]: 8.94 | pEC50 ([3]; Homo sapiens, TF-1, TF-1 cells): 5.52
Structure (SMILES): O=C(Nc1cn(CC(=O)N2CC[C@H]3CNC[C@H]3C2)nc1-c1cc(Cl)ccc1OC(F)F)c1cnn2cccnc12 [Example 21, N-[1-[2-[(3aS,7aR)-1,2,3,3a,4,6,7,7a-octahydropyrrolo[3,4-c]pyridin-5-yl]-2-oxo-ethyl]-3-[5-chloro-2-(difluoromethoxy)phenyl]pyrazol-4-yl]pyrazolo[1,5-a]pyrimidine-3-carboxamide]

pKi [1]: 9.62 | pKi [2]: 9.51 | pEC50 ([3]; Homo sapiens, TF-1, TF-1 cells): 6.85
Structure (SMILES): CN(Cc1ccc(Cl)c(Cl)c1)C1CCN(C(=O)Cn2cc(NC(=O)c3cnn4cccnc34)c(-c3cc(Cl)ccc3OC(F)F)n2)CC1 [Example 121, N-[3-[5-chloro-2-(difluoromethoxy)phenyl]-1-[2-[4-[(3,4-dichlorophenyl)methyl-methyl-amino]-1-piperidyl]-2-oxo-ethyl]pyrazol-4-yl]pyrazolo[1,5-a]pyrimidine-3-carboxamide]

pKi [1]: 9.29 | pKi [2]: 9.14 | pEC50 ([3]; Homo sapiens, TF-1, TF-1 cells): 6.63
Structure (SMILES): O=C(Nc1cn(CC(=O)N2C[C@H]3CN(CC4CCN(C(=O)C5CCOCC5)CC4)C[C@H]3C2)nc1-c1cc(Cl)ccc1OC(F)F)c1cnn2cccnc12 [Example 35, N-[1-[2-[(3aR,6aS)-2-[[1-(tetrahydropyran-4-carbonyl)-4-piperidyl]methyl]-1,3,3a,4,6,6a-hexahydropyrrolo[3,4-c]pyrrol-5-yl]-2-oxo-ethyl]-3-[5-chloro-2-(difluoromethoxy)phenyl]pyrazol-4-yl]pyrazolo[1,5-a]pyrimidine-3-carboxamide]

pKi [1]: 9.34 | pKi [2]: 9.30 | pEC50 ([3]; Homo sapiens, TF-1, TF-1 cells): 7.01
Structure (SMILES): O=C(Nc1cn(CC(=O)N2C[C@H]3CN(CCCN4CCOC4=O)C[C@H]3C2)nc1-c1cc(Cl)ccc1OC(F)F)c1cnn2cccnc12 [Example 32, N-[1-[2-[(3aS,6aR)-2-[3-(2-oxooxazolidin-3-yl)propyl]-1,3,3a,4,6,6a-hexahydropyrrolo[3,4-c]pyrrol-5-yl]-2-oxo-ethyl]-3-[5-chloro-2-(difluoromethoxy)phenyl]pyrazol-4-yl]pyrazolo[1,5-a]pyrimidine-3-carboxamide]

pKi [1]: 9.42 | pKi [2]: 9.82 | pEC50 ([3]; Homo sapiens, TF-1, TF-1 cells): 8.16
Structure (SMILES): NC(=O)CCN1CCC(n2cc(NC(=O)c3c(N)nn4cccnc34)c(-c3cc(Cl)ccc3OC(F)F)n2)CC1 [Example 165, 2-amino-N-[1-[1-(3-amino-3-oxo-propyl)-4-piperidyl]-3-[5-chloro-2-(difluoromethoxy)phenyl]pyrazol-4-yl]pyrazolo[1,5-a]pyrimidine-3-carboxamide]
